Data reported in US20220178944A1, “METHODS FOR IDENTIFYING DIFFERENTIAL HISTONE RETENTION FOR EPIGENETIC ALTERATIONS IN GERMLINE DNA OF ANIMALS” (Washington State University, priority 2020, published 2022).

Legend:
Sprague Dawley rats = assay: Histopathology and disease classification, F3 generation atrazine lineage males; format: in vivo, rat
Experimental: Female and male rats of an outbred strain Hsd:Sprague Dawley SD (Harlan) at 70 to 100 days of age were fed ad lib with a standard rat diet and ad lib tap water. Timed-pregnant females on days 8 through 14 of gestation were administered daily intraperitoneal injections of atrazine (25 mg/kg BW/day dissolved in PBS) (Chem Service, Westchester Pa.) or dimethyl sulfoxide (DMSO) or as previously described. Twenty-five mg/kg for atrazine is 4% of rat oral LD50 and 50% of NOAEL.
The gestating female rats treated were designated as the F0 generation. F1-F3 generation control and atrazine lineages were housed in the same room and racks with lighting, food and water.
Rats were euthanized at 12 months of age by CO2 inhalation and cervical dislocation for tissue harvest. Testis, prostate, ovary, kidney, and gonadal fat pads were fixed in Bouin's solution (Sigma) followed by 70% ethanol, then processed for paraffin embedding and hematoxylin, and eosin (H & E) staining by standard procedures for histopathological examination. Paraffin five micron sections were processed and stained (Nationwide Histology, Spokane Wash., USA).
Full necropsies were performed as required on animals that died prior to the time of scheduled sacrifice at one year and tumor classifications were performed.
Upon dissection a brief examination of abdominal and thoracic organs was performed to look for obvious abnormalities. The tissues evaluated histologically were selected from previous literature showing them to have pathology in transgenerational models, with an emphasis on reproductive organs. Histopathology readers were trained to recognize the specific abnormalities evaluated for this study in rat testis, ventral prostate and kidney (see below). Two different readers initially evaluated the tissues. […] Readers were blinded to the exposure groups. A set of quality control (QC) slides was generated for each tissue and was read by each reader prior to evaluating any set of experimental slides. These QC slide results are monitored for reader accuracy and concordance.
Testis histopathology criteria included the presence of vacuoles in the seminiferous tubules, azoospermic atretic seminiferous tubules, and ‘other’ abnormalities including sloughed spermatogenic cells in the center of the tubule and a lack of a tubule lumen. Prostate histopathology criteria included the presence of vacuoles in the glandular epithelium, atrophic glandular epithelium and hyperplasia of prostatic gland epithelium (FIG. 25). Kidney histopathology criteria included reduced size of glomerulus, thickened Bowman's capsule, and the presence of proteinaceous fluid-filled cysts >50 μm in diameter (FIG. 25). A cut-off was established to declare a tissue ‘diseased’ based on the mean number of histopathological abnormalities plus two standard deviations from the mean of control group tissues, as assessed by each of the individual readers. This number (i.e. greater than two standard deviations) was used to classify rats into those with and without testis, prostate, or kidney disease in the F3 generation lineage. A rat tissue section was finally declared ‘diseased’ only when at least two of the three readers marked the same tissue section ‘diseased’.
Lean phenotype was assessed with a decrease in adipocyte size (area), body mass index (BMI) and abdominal adiposity. BMI was calculated with weight (g)/length (cm)^2 with the length of the animal measured from the nose to the base of the tail. Gonadal fat pad slides were imaged using a Nikon Eclipse E800 microscope (10×) with an AVT Prosilica GE1050C Color GigE camera. Five field of view image captures were taken per slide in varying parts of the fat pad. Adipocyte size was measured converting pixels into microns using Adiposoft. Measurements of the 20 largest cells from each image for a total of 100 were averaged as hypertrophic cells are the most metabolically relevant and susceptible to cell death. […]

[1] = test system: sperm histone H3 retention sites; assay: Sperm differential histone retention regions (DHRs), histone H3 ChIP-Seq, glyphosate versus control lineage; format: in vivo, rat; conditions: F3 generation males; F0 25 mg/kg/day i.p. gestation days 8-14; edgeR p<1e-05
Description: (§1) Outbred Sprague Dawley SD male and female rats were fed a standard diet with water ad lib and mated. […] Female and male rats of an outbred strain Hsd:Sprague Dawley SD (Harlan) at 70 to 100 days of age were fed ad lib with a standard rat diet and ad lib tap water.
(§2) The gestating female rats treated were designated as the F0 generation. Breeding for each generation occurred at 70-90 days and 5 different litters were generated with no cousin or sibling breeding to avoid any inbreeding artifacts. Litters were culled to 10 pups (5 males and 5 females) between days 3-5 of birth to avoid litter effects. […] The F3 generation males were aged to 1 year of age for pathology analysis.
Histone chromatin immunoprecipitation with genomic DNA was performed. Individual rat sperm were collected, and the sperm counts were determined for each individual. A sonication of 10 seconds was performed for each sperm sample to remove any somatic cell contamination using a Sonic Dismembrator Model 300 (Thermo Scientific Fisher, USA) then centrifuged 1800×g for 5 minutes at 4° C. then resuspended and counted individually on a Neubauer counting chamber (Propper manufacturing Co., Inc., New York, USA). The sperm samples were reconstituted up to 1 ml with PBS (phosphate buffered saline). […]

[2] = cited from earlier work
sperm DNA methylation = assay: Sperm differential DNA methylation regions (DMRs), MeDIP-Seq, glyphosate versus control lineage; format: in vivo, rat; conditions: F3 generation males, edgeR p<1e-05
Description: as §1, §2
Briefly, the epididymis was dissected free of fat and connective tissue, then, after cutting open the cauda, placed into 6 ml of phosphate buffer saline (PBS) for 20 minutes at room temperature. Further incubation at 4° C. will immobilize the sperm. The tissue was then minced, the released sperm pelleted at 4° C. 3,000×g for 10 min, then resuspended in NIM buffer and stored at −80° C. for further processing.
An appropriate amount of rat sperm suspension was used for DNA extraction. […]
Genomic DNA was sonicated and run on 1.5% agarose gel for fragment size verification. […] DNA concentration was measured in Qubit (Life Technologies) with the ssDNA kit (Molecular Probes Q10212). […]

[3] = Glyphosate metabolism turnover (half-life); format: in vivo; conditions: worked out from 2-4 half-lives per 24-hour period
[4] = in vivo; cited from earlier work
[5] = F3 generation atrazine lineage males, 1 year of age, # evaluated 55

SMILES	prevalence of transgenerational lean pathology in the exposed population (Sprague Dawley rats; F3 generation atrazine lineage)	# affected, Kidney disease (Sprague Dawley rats; [5])	# affected, Lean (Sprague Dawley rats; [5])	# affected, Obese (Sprague Dawley rats; [5])	# affected, Prostate disease (Sprague Dawley rats; [5])	# affected, Testis disease (Sprague Dawley rats; [5])	# affected, Tumor (Sprague Dawley rats; [5])	# affected, Puberty Late (Sprague Dawley rats; F3 generation atrazine lineage males, # evaluated 55)	# affected, Puberty Early (Sprague Dawley rats; F3 generation atrazine lineage males, F0 25 mg/kg/day i.p. gestation days 8-14, # evaluated 55)	number of sperm DHRs, glyphosate versus control [1]	No Observational Adverse Effect Level (NOAEL) dose ([2]; direct exposure, mammalian rat model) [mg/kg per day]	No Observable Adverse Effect Level (NOAEL) exposure ([2]; rat, in vivo) [mg/kg/day]	total number of sperm DMRs, control versus glyphosate (All Window) (sperm DNA methylation; F0 25 mg/kg/day i.p. gestation days 8-14)	number of sperm DMRs with multiple neighboring 1000 bp windows, control versus glyphosate (sperm DNA methylation)	daily decrease of concentration during the transient exposure period [3]	half-life (metabolism turnover) [4] [h]
CCNc1nc(Cl)nc(NC(C)C)n1 [atrazine]	nearly a third of the animals	8	15	4	4	12	1	10	0							
O=C(O)CNCP(=O)(O)O [glyphosate]										836	50	50	340	11	75-90%	5 to 10
